Among the data in PubChem BioAssay AID651703 (Broad Institute, 2012) are AC50 values, retold here.

Each structure is given as a SMILES string. “And” between values parts separate entries of the source, which are not always exact repeats. Equal values may be shown once.

As usually defined, the AC50 is the concentration at which the activity in the assay is half-maximal.

The target in this test is Transforming acidic coiled-coil-containing protein 3 (Homo sapiens) (UniProt Q9Y6A5). The test is described as follows: inhibition of ARNT PAS-B/TACC3 complex formation – biochemical, AlphaScreen, cherry-picked samples, confirmation (AID 651703).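 Note: TACC3 partner is the GST-tagged E629A mutant dimer; hits lower the signal meaning they disrupt ARNT binding to TACC3.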 The settings on record: AlphaScreen His-ARNT PAS-B / GST-TACC3 binding, luminescence. Background: Bead proximity is the source of the signal in Alpha formats.
On to `c1ccc(-c2nnc(-c3ccccn3)nc2Nc2cnc3ccccc3n2)cc1`, for which the AC50 is under 0.5 µM.

Take `CC1(c2ccccc2)NC(=O)N(CC(=O)Nc2nc(-c3ccccn3)cs2)C1=O` (stereo not given): the AC50 was 6.64 µM.

In the case of `Clc1ccc(-c2ccc(CNCc3ccccn3)o2)cc1`, the AC50 is 20 µM.

In the case of `CC(=O)Nc1cccc(C(=O)O)n1`, the AC50 was 12.2 µM.

Turning to `COC(=O)c1ccc(CSc2ccc3nnc(-c4ccccn4)n3n2)o1`, the AC50 was 17.4 µM.

`C[C@]12CC[C@H](O)CC1=CCC1C2CC[C@@]2(C)C1CC[C@@H]2NC(=O)[C@@H](N)Cc1cnc[nH]1` (stereo not given in full): the AC50 is 28.3 µM.

Consider `O=C(N[C@H]1CC[C@@H](CCn2cc(-c3ccccn3)nn2)O[C@@H]1CO)c1ccc(F)cc1`, for which the AC50 was 14.8 µM.

Regarding `CCOC(=O)CSc1cccc2cccnc12`, the AC50 was 4.59 µM.

For `c1ccc(-c2cn3c(n2)CCc2ccc4cccnc4c2-3)cc1`, the AC50 was 21.2 µM.

For the molecule `COC(=O)Cc1cc(=O)n(-c2nc3ccccc3[nH]2)[nH]1`, the AC50 was 2.68 µM.

For `CNc1ccc2nc3ccccc3[n+](C)c2c1`, the AC50 is 29.9 µM.

Turning to `O=C(N[C@H]1CC[C@H](CCn2cc(-c3ccccn3)nn2)O[C@@H]1CO)c1ccccc1`, the AC50 is 13 µM.

With `O=C(N[C@H]1CC[C@H](CCn2cc(-c3ccccn3)nn2)O[C@@H]1CO)c1ccc(F)cc1`, the AC50 was 23.1 µM.

With `c1ccc(-c2nnc(SCc3nc4ccccc4[nH]3)n2Cc2ccco2)nc1`, the AC50 was 19.8 µM.

For `Oc1cccc(/C=N/Nc2ccc(Cl)nn2)c1O`, the AC50 is 1.5 µM.

With `Cc1ccc(C(=O)Nc2nc(-c3ccccn3)cs2)o1`, the AC50 is 2.07 µM.

For `COC(=O)C1=COC(C)C2CN3CCc4c([nH]c5cc(OC)c(OC)cc45)C3CC12` (stereo not given), the AC50 is 67.6 µM.

On to `CCN(CC)c1ccc(Nc2nc(N3CCOCC3)c3ccccc3n2)cc1`, for which the AC50 is 4.99 µM.

In the case of `CC(C)COCc1ccc(O)c2ncccc12`, the AC50 was 3.53 µM.

On to `O=C(N[C@@H]1CC[C@H](CCn2cc(-c3ccccn3)nn2)O[C@@H]1CO)c1ccccc1`, for which the AC50 was 20.7 µM.

In the case of `C/C(CC(=O)Nc1ccc(N(C)C)cc1)=N\NC(=O)c1ccccn1`, the AC50 is 12.3 µM.

Take `COc1ccccc1C(CCNCc1ccc(N(C)C)cc1)c1ccc(OC(C)C)cc1` (stereo not given): the AC50 is 7.83 µM.

Regarding `Oc1c(C(c2ccccc2Cl)N2CCCC2)ccc2cccnc12` (stereo not given), the AC50 was 1.85 µM.

In the case of `OCC1CCN(Cc2ccc(O)c3ncccc23)CC1`, the AC50 was under 0.5 µM.

In the case of `c1ccc(-c2nnc(-c3ccccn3)nc2NCCCN2CCOCC2)cc1`, the AC50 is under 0.5 µM.

In the case of `O=C(CSc1n[nH]c(-c2ccccn2)n1)Nc1ccccc1`, the AC50 was 0.706 µM.

Regarding `O=C(Nc1nnc(-c2ccccn2)o1)c1cccc(Cl)c1`, the AC50 is 30.2 µM.

As to `COc1ccccc1N1CCN(Cc2ccc(O)c3ncccc23)CC1`, the AC50 is 0.669 µM and 2.18 µM.

Take `CC(=O)c1cccc(-c2ccc3c(=O)[nH]c(Nc4ccccc4)cc3c2)c1`: the AC50 was 23.1 µM.

Turning to `Cc1ccc(C)c(-n2c(SCC(N)=O)nnc2-c2ccccn2)c1`, the AC50 is 20 µM.

As to `O=S(=O)(c1ccc(Br)cc1)c1nc(-c2ccco2)oc1NCCCn1ccnc1`, the AC50 is 33.9 µM.

With `COc1cccc(CNc2nc(-c3ccccn3)nnc2-c2ccccc2)c1`, the AC50 is 0.794 µM.

On to `CO[C@@H]1CN(C)C(=O)c2ccc(NC(=O)c3ccccn3)cc2OC[C@@H](C)N(Cc2ccccn2)C[C@H]1C`, for which the AC50 was 7.1 µM.

Regarding `O=C(N[C@@H]1CC[C@@H](CCn2cc(-c3ccccn3)nn2)O[C@H]1CO)c1ccc(F)cc1`, the AC50 is 10.2 µM.

For the molecule `COc1ccc(C2C(C#N)=C(N)Oc3n[nH]c(-c4ccccn4)c32)c(OC)c1OC` (stereo not given), the AC50 is 53.3 µM.

As for `Nc1[nH]c(=O)nc(Nc2ccccc2)c1N=O`, the AC50 was 21.2 µM.

For `Oc1c(C(Nc2cccc(C(F)(F)F)c2)c2ccncc2)ccc2cccnc12` (stereo not given), the AC50 was 0.575 µM.

As for `O=C(N[C@@H]1CC[C@@H](CCn2cc(-c3ccccn3)nn2)O[C@H]1CO)c1cccnc1`, the AC50 is 11.8 µM.

For the molecule `Cc1ccc(CNc2nc(-c3ccccn3)nnc2-c2ccccc2)cc1`, the AC50 is 0.736 µM.

In the case of `CCOC(=O)Cc1nnc(NC(=O)c2ncn[nH]2)s1`, the AC50 is 23.2 µM.

`O=C(Oc1ccc(Cl)c2cccnc12)c1cccnc1`: the AC50 is 9.58 µM.

As to `O=C(CSc1ccc(-c2ccccn2)nn1)Nc1ccccc1`, the AC50 is 1.96 µM.

As to `COc1ccc(NC(=O)N[C@H]2CC[C@H](CCn3cc(-c4ccccn4)nn3)O[C@@H]2CO)cc1`, the concentration at half-maximal activity (AC50) is 12 µM.

Regarding `CCc1cc2c(=O)[nH]c(-c3ccccn3)nc2s1`, the AC50 is 2.86 µM.

Take `COc1cc(CNCc2ccccn2)ccc1OCc1c(Cl)cccc1Cl`: the AC50 is 43.4 µM.

As for `Cc1ccc(C(=O)Nc2cccc(C(=O)N/N=C/c3ccc(O)cc3)c2)cc1`, the AC50 was 32.7 µM.

As to `N/C(=N\OS(=O)(=O)c1ccc(Cl)cc1)c1ccccn1`, the AC50 was 22.5 µM.

`Oc1ccc(/C=N/Nc2ccc(Cl)nn2)c(O)c1O`: the AC50 was 0.702 µM.

For `O=C(Nc1ccc(N2CCN(C(=O)c3ccccc3F)CC2)cc1)c1ncn[nH]1`, the AC50 is 17.8 µM.

As for `O=C(Cc1ccccc1)Nc1nnc(-c2ccco2)o1`, the AC50 is 56.9 µM.

As to `Cn1c(-c2ccccc2)cnc1Nc1nc(-c2ccccn2)nnc1-c1ccccc1`, the AC50 was 2.26 µM.

For `COc1ccc(NC(=O)N[C@@H]2CC[C@H](CCn3cc(-c4ccccn4)nn3)O[C@@H]2CO)cc1`, the AC50 was 21.5 µM.

On to `COc1ccccc1CNC(=O)CSc1ccc(-c2ccccn2)nn1`, for which the AC50 was 9.48 µM.

For `Cc1sc2ncnc(N/N=C/c3ccccc3O)c2c1C`, the concentration at half-maximal activity (AC50) was 10.1 µM.

`O=C(CN1C(=O)C2CCCCC2C1=O)Nc1nc(-c2ccccn2)cs1` (stereo not given): the AC50 is 5.15 µM.

As to `O=C(N[C@@H]1CC[C@H](CCn2cc(-c3ccccn3)nn2)O[C@@H]1CO)c1ccncc1`, the AC50 was 8.23 µM.

Turning to `O=C(CSc1ccc(-c2ccccn2)nn1)c1ccccc1`, the AC50 is 3.36 µM.

Take `O=c1cc(-c2ccc(O)cc2)oc2c(O)c(O)c(O)c(O)c12`: the AC50 was 63 µM.

Regarding `CNCc1cn2cc(Cl)ccc2n1`, the AC50 is 21 µM.

For the molecule `COc1ccc(-c2nc(C#N)c(N3CCCCC3)o2)cc1`, the half-maximal activity concentration (AC50) is 32.2 µM.

Turning to `CCO/C=C1/C(=O)N(Cc2ccccc2)C(=O)c2ccccc21`, the AC50 is 29 µM.

For `O=C(Nc1nc(-c2ccccn2)cs1)c1cc(Cl)ccc1[N+](=O)[O-]`, the AC50 is 3.07 µM.

For `c1ccc(CNc2nc(-c3ccccn3)nc3ccccc23)cc1`, the AC50 is 11.4 µM.

On to `Cc1[nH]n(-c2ccccc2)c(=O)c1/C=N/NC(=O)c1cccc(F)c1`, for which the AC50 was 9.69 µM.

For the molecule `O=C(CNS(=O)(=O)c1ccc([N+](=O)[O-])cc1)N/N=C/c1ccc(O)cc1O`, the AC50 is 19.2 µM.

For the molecule `c1ccc(-c2nnc(-c3ccccn3)nc2N2CCC(C3CCCCC3)C2)cc1` (stereo not given), the AC50 is 2.68 µM.

As for `Cc1cccc(CNC(=O)c2cc(-c3ccccc3)on2)c1`, the AC50 is 23.4 µM.

On to `C/C(=N\NC(=O)c1cccc2ccccc12)c1ccccn1`, for which the AC50 was 3.15 µM.

With `O=S(=O)(c1ccccc1)c1nc(-c2ccco2)oc1Nc1ccccc1`, the AC50 was 55.5 µM.

With `CSCCC(=O)Nc1nc(-c2ccccn2)cs1`, the AC50 was 8.98 µM.

For `CC(=O)N1CCc2[nH]c3ccc(C)cc3c2C1`, the AC50 is 13.9 µM.

In the case of `O=C(CSc1ccc(-c2ccccn2)nn1)NCc1ccccc1`, the AC50 is 4.18 µM.

As for `CCCC(=O)NC(c1ccc(N(C)C)cc1)c1ccc2cccnc2c1O` (stereo not given), the AC50 is 5.3 µM.

With `Cc1ccc(S(=O)(=O)NC(=O)c2cc(C)n(CCCn3ccnc3)c2C)cc1`, the AC50 is 21.2 µM.

`Cc1cc(NC(c2ccc(Cl)cc2)c2ccc3cccnc3c2O)no1` (stereo not given): the AC50 was 10.2 µM.

`O=C(NCCCNCCCNC(=O)c1ccc(/C=N/O)nc1)c1ccc(/C=N/O)nc1`: the AC50 is 4.96 µM.

Regarding `O=[N+]([O-])c1cccc(/C=N/Nc2nc(NCc3ccccc3)nc(N3CCOCC3)n2)c1O`, the AC50 was 2.29 µM.

Consider `Oc1ccc(/C=N/Nc2ncc(Br)cn2)c(O)c1`, for which the AC50 was 6.19 µM.

As to `O=c1[nH]c(O)c(N=Nc2cc([N+](=O)[O-])ccc2O)c(=O)[nH]1`, the AC50 was 25.5 µM.

With `COc1cccc(/C=N/Nc2nc3ccccc3[nH]2)c1O`, the AC50 is 26.6 µM.

Take `c1ccc(-c2cn(C[C@H]3CC[C@H](Cn4cc(-c5ccccn5)nn4)O3)nn2)nc1`: the AC50 was under 0.5 µM.

With `C(=N\Nc1ncnc2nc[nH]c12)/c1cccs1`, the AC50 was 57.8 µM.

Turning to `O=S(=O)(NC1CCN(Cc2ccc(OCCO)cc2)CC1)c1cccc2cccnc12`, the AC50 was 15.2 µM.

Consider `CC(Nc1nc(-c2ccccn2)nnc1-c1ccccc1)c1ccccc1` (stereo not given), for which the AC50 is 0.564 µM.

Take `COc1ccccc1Nc1cc2cc(Br)ccc2c(=O)[nH]1`: the AC50 was 16.8 µM.

`O=C(c1ccccn1)N1CC[C@@H]2[C@H](CO)Nc3ccc(Br)cc3[C@@H]21`: the AC50 is 24.1 µM.

With `C[C@@H](Nc1nc(-c2ccccn2)nnc1-c1ccccc1)c1ccccc1`, the AC50 is 0.77 µM.

On to `c1ccc(-c2nnc(-c3ccccn3)nn2)nc1`, for which the AC50 is 28.8 µM.

Regarding `CCOC(=O)c1cnc(-n2[nH]c(C)cc2=O)[nH]c1=O`, the AC50 was 0.754 µM.

For the molecule `Cn1cccc1C(=O)Nc1nc(-c2ccccn2)cs1`, the half-maximal activity concentration (AC50) is 5.3 µM.

In the case of `O=C(O)C1Nc2c(O)cc(Cl)c([N+](=O)[O-])c2C2C=CCC12` (stereo not given), the AC50 was 28.1 µM.

As for `Oc1cc(NCCN2CCOCC2)cc2cccnc12`, the AC50 was 1.46 µM.

`c1ccc(-c2nnc(-c3ccccn3)nc2Nc2nc3ccccc3s2)cc1`: the AC50 is 0.509 µM.

With `O=C(NCCCn1ccnc1)Nc1cccc(Cl)c1`, the AC50 was 9.64 µM.

`O=C(Nc1nnc(-c2ccncc2)o1)c1ccccc1`: the AC50 was 18.8 µM.

For the molecule `COc1cc(-c2nnc(NC(=O)CS(=O)(=O)c3ccc(F)cc3)o2)cc(OC)c1OC`, the AC50 is 24.3 µM.

With `COc1cccc(CNC(=O)CSc2ccc(-c3ccccn3)nn2)c1`, the AC50 is 4.03 µM.

`COc1ccc(C(=O)Nc2nc(-c3ccccn3)cs2)cc1S(=O)(=O)N1CCOCC1`: the AC50 is 3.13 µM.

Take `O=C(N[C@@H]1CC[C@H](CCn2cc(-c3ccccn3)nn2)O[C@H]1CO)c1ccc(F)cc1`: the AC50 is 14.3 µM.

For `c1ccc(-c2nnc(-c3ccccn3)nc2N2CCC(N3CCOCC3)CC2)cc1`, the AC50 was under 0.5 µM.
